Laboratory results published in US11857519B2, “Compounds and methods for the targeted degradation of enhancer of zeste homolog 2 polypeptide” (Arvinas Operations, Inc., priority 2016, dated 2024).

Target: T1, EZH2 (Homo sapiens, UniProt Q15910)
T1 construct: Protocol of the Cellular Assay of Target Protein Degradation (VCaP Cells, ELISA); endogenous in cells; host or cells: VCaP cells
Assay: Cellular assay of target protein degradation (VCaP cells, ELISA)
Type: cell-based
Details: 4 hours, protein degradation range at indicated concentration (relative to DMSO control)
Method: Protocol of the Cellular Assay of Target Protein Degradation (VCaP Cells, ELISA).
For detection Cell Signaling PathScan Sandwich ELISA Catalog #12850 Lot 11 was used. VCaP cells were cultured in ATCC DMEM+ATCC FBS and plated 40,000/well 100 μl/well in RPMI P/S with 5% CSS Omega (bovine) serum into a 96 well plate. The cells were grown for a minimum of 3 days, dosed with compounds in 0.1% DMSO (diluted with 5% CSS) and incubated with aspiration for 4 hours. 100 μl of 1× Cell Signaling lysis buffer #9803 (36 mL dH2O+4 mL Cell Signaling lysis buffer) was added. The incubation was placed on cold room shaker for 10 minutes at speed 8-9. 5 μl to 100 μL of Diluent was transferred to ELISA plate (0.15 μg/mL−0.075 μg/mL) and stored at 4° C. overnight on cold room shaker speed 5 (gentle swirl) and then shaken next morning at 37° C. for 30 minutes. The preparation was washed 4×200 μl with ELISA wash buffer and aspirated with eight-channel aspirator. 100 μl/well of target protein detection antibody was added after, which the preparation was covered and shaken at 37° C. for 1 hour. 100 μl TMB was added, and the mixture was shaken for 5 min while under observation. When TMB turned light blue, 100 μl of Stop solution was added, and the mixture was shaken and read at 450 nm. Also read at 562 nm for background subtraction.

T1 sequence (Q15910 whole entry): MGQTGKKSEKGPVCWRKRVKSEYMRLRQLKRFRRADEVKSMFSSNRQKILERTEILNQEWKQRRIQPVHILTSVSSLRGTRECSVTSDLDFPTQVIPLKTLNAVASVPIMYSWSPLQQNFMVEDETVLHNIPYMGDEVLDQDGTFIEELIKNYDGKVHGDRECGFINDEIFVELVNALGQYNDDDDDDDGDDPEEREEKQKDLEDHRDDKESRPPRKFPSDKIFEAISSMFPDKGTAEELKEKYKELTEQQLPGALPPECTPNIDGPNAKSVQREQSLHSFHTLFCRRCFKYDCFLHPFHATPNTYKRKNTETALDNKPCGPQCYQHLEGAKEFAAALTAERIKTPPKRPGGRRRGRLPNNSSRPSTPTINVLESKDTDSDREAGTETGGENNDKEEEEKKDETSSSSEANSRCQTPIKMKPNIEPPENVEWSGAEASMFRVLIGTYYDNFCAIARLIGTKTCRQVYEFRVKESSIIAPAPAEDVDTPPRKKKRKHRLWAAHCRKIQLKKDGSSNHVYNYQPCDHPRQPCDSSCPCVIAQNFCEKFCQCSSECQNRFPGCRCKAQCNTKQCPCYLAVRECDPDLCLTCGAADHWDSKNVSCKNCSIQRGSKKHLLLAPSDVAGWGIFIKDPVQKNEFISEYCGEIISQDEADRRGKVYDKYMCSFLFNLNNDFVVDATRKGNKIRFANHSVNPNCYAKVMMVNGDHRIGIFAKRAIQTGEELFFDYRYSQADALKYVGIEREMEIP
T1 sequence (O75530 whole entry partner): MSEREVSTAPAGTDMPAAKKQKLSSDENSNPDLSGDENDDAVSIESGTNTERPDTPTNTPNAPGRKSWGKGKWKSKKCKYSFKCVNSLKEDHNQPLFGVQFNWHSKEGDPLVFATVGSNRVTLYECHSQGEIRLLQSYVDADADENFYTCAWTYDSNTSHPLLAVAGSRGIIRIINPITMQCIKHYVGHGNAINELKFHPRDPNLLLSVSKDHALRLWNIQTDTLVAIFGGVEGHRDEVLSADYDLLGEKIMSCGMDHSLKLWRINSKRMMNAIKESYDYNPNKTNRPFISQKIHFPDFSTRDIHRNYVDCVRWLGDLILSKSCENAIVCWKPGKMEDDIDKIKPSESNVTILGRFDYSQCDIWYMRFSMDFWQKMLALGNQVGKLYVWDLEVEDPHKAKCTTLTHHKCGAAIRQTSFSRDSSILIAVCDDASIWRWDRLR
T1 sequence (Q15022 whole entry partner): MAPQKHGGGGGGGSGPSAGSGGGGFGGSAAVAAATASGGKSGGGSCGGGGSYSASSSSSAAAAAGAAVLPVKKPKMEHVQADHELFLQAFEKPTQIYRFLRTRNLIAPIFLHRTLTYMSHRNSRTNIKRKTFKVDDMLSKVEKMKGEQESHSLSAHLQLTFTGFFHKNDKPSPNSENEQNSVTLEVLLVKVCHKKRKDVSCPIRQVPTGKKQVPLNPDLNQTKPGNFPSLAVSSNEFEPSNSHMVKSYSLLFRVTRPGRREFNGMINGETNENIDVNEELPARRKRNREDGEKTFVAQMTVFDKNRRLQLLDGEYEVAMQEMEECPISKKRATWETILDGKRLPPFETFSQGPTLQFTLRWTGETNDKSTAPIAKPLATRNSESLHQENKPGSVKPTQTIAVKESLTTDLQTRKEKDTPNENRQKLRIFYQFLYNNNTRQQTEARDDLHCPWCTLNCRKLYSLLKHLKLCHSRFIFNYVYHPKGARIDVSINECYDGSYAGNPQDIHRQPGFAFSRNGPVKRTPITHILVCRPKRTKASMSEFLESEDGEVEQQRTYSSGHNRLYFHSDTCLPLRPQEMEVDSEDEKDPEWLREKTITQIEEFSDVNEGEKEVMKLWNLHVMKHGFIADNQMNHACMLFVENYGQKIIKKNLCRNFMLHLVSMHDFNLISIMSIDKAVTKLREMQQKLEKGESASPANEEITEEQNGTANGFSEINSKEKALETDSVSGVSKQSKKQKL

Row | Compound | percent target protein degradation class
1 | CCN(c1cc(-c2ccc(OCCOCCOCCOc3ccc(CCN4CC[C@@H]5CCN(C(=O)[C@@H](NC(=O)[C@H](C)NC)C6CCCCC6)[C@@H]5C4)cc3)cc2)cc(C(=O)NCc2c(C)cc(C)[nH]c2=O)c1C)C1CCOCC1 (racemic) [Compound 26, 5-[4-(2-{2-[2-(4-{2-[(3aR,7aS)-1-[(2S)-2-cyclohexyl-2-[(2S)-2-(methylamino)propanamido]acetyl]-octahydro-1H-pyrrolo[2,3-c]pyridin-6-yl]ethyl}phenoxy)ethoxy]ethoxy}ethoxy)phenyl]-N-[(4,6-dimethyl-2-oxo-1,2-dihydropyridin-3-yl)methyl]-3-[ethyl(oxan-4-yl)amino]-2-methylbenzamide] | B (B = degradation between 30% and 60%)
2 | CCN(c1cc(-c2ccc(OCCOCCOCCOCCOCCOc3ccc(CCN4CC[C@@H]5CCN(C(=O)[C@@H](NC(=O)[C@H](C)NC)C6CCCCC6)[C@@H]5C4)cc3)cc2)cc(C(=O)NCc2c(C)cc(C)[nH]c2=O)c1C)C1CCOCC1 (racemic) [Compound 29, 5-(4-{[1-(4-{2-[(3aR,7aS)-1-[(2S)-2-cyclohexyl-2-[(2S)-2-(methylamino)propanamido]acetyl]-octahydro-1H-pyrrolo[2,3-c]pyridin-6-yl]ethyl]phenyl)-1,4,7,10,13-pentaoxapentadecan-15-yl]oxy}phenyl)-N-[(4,6-dimethyl-2-oxo-1,2-dihydropyridin-3-yl)methyl]-3-[ethyl(oxan-4-yl)amino]-2-methylbenzamide] | B (B = degradation between 30% and 60%)
3 | Cc1cc(C)c(CNC(=O)c2cc(-c3ccc(CN4CCN(CCOCC(=O)N[C@H](C(=O)N5C[C@H](O)C[C@H]5C(=O)NCc5ccc(-c6scnc6C)cc5)C(C)(C)C)CC4)cc3)cc3c2ccn3C2CCCC2)c(=O)[nH]1 [Compound 1, 1-cyclopentyl-N-[(4,6-dimethyl-2-oxo-1,2-dihydropyridin-3-yl)methyl]-6-[4-({4-[2-({[(2S)-1-[(2S,4R)-4-hydroxy-2-({[4-(4-methyl-1,3-thiazol-5-yl)phenyl]methyl}carbamoyl)pyrrolidin-1-yl]-3,3-dimethyl-1-oxobutan-2-yl]carbamoyl}methoxy)ethyl]piperazin-1-yl}methyl)phenyl]-1H-indole-4-carboxamide] | B (B = degradation between 30% and 60%)
4 | Cc1cc(C)c(CNC(=O)c2cc(-c3ccc(CN4CCN(CCOCCOCC(=O)N[C@H](C(=O)N5C[C@H](O)C[C@H]5C(=O)NCc5ccc(-c6scnc6C)cc5)C(C)(C)C)CC4)cc3)cc3c2ccn3C2CCCC2)c(=O)[nH]1 [Compound 2, 1-cyclopentyl-N-[(4,6-dimethyl-2-oxo-1,2-dihydropyridin-3-yl)methyl]-6-{4-[(4-{2-[2-({[(2S)-1-[(2S,4R)-4-hydroxy-2-({[4-(4-methyl-1,3-thiazol-5-yl)phenyl]methyl}carbamoyl)pyrrolidin-1-yl]-3,3-dimethyl-1-oxobutan-2-yl]carbamoyl}methoxy)ethoxy]ethyl)piperazin-1-yl)methyl]phenyl}-1H-indole-4-carboxamide] | B (B = degradation between 30% and 60%)
5 | Cc1cc(C)c(CNC(=O)c2cc(-c3ccc(CN4CCN(CCOCCCCOCC(=O)N[C@H](C(=O)N5C[C@H](O)C[C@H]5C(=O)NCc5ccc(-c6scnc6C)cc5)C(C)(C)C)CC4)cc3)cc3c2ccn3C2CCCC2)c(=O)[nH]1 [Compound 3, 1-cyclopentyl-N-[(4,6-dimethyl-2-oxo-1,2-dihydropyridin-3-yl)methyl]-6-{4-[(4-{2-[4-({[(2S)-1-[(2S,4R)-4-hydroxy-2-({[4-(4-methyl-1,3-thiazol-5-yl)phenyl]methyl}carbamoyl)pyrrolidin-1-yl]-3,3-dimethyl-1-oxobutan-2-yl]carbamoyl}methoxy)butoxy]ethyl}piperazin-1-yl)methyl]phenyl}-1H-indole-4-carboxamide] | B (B = degradation between 30% and 60%)
6 | Cc1cc(C)c(CNC(=O)c2cc(-c3ccc(CN4CCN(CCOCCCOCCCOCC(=O)N[C@H](C(=O)N5C[C@H](O)C[C@H]5C(=O)NCc5ccc(-c6scnc6C)cc5)C(C)(C)C)CC4)cc3)cc3c2ccn3C2CCCC2)c(=O)[nH]1 [Compound 4, 1-cyclopentyl-N-[(4,6-dimethyl-2-oxo-1,2-dihydropyridin-3-yl)methyl]-6-(4-{[4-(2-{3-[3-({[(2S)-1-[(2S,4R)-4-hydroxy-2-({[4(4-methyl-1,3-thiazol-5-yl)phenyl]methyl}carbamoyl)pyrrolidin-1-yl]-3,3-dimethyl-1-oxobutan-2-yl]carbamoyl}methoxy)propoxy]propoxy}ethyl)piperazin-1-yl]methyl}phenyl)-1H-indole-4-carboxamide] | B (B = degradation between 30% and 60%)
7 | Cc1cc(C)c(CNC(=O)c2cc(-c3ccc(CN4CCN(CCOCCCCOCCCCOCC(=O)N[C@H](C(=O)N5C[C@H](O)C[C@H]5C(=O)NCc5ccc(-c6scnc6C)cc5)C(C)(C)C)CC4)cc3)cc3c2ccn3C2CCCC2)c(=O)[nH]1 [Compound 5, 1-cyclopentyl-N-[(4,6-dimethyl-2-oxo-1,2-dihydropyridin-3-yl)methyl]-6-(4-{[4-(2-{4-[4-({[(2S)-1-[(2S,4R)-4-hydroxy-2-({[4-(4-methyl-1,3-thiazol-5-yl)phenyl]methyl}carbamoyl)pyrrolidin-1-yl]-3,3-dimethyl-1-oxobutan-2-yl]carbamoyl}methoxy)butoxy]butoxy}ethyl)piperazin-1-yl]methyl}phenyl)-1H-indole-4-carboxamide] | B (B = degradation between 30% and 60%)
8 | Cc1cc(C)c(CNC(=O)c2cc(-c3ccc(CN4CCN(CCOCCCCCOCCCCCOCC(=O)N[C@H](C(=O)N5C[C@H](O)C[C@H]5C(=O)NCc5ccc(-c6scnc6C)cc5)C(C)(C)C)CC4)cc3)cc3c2ccn3C2CCCC2)c(=O)[nH]1 [Compound 6, 1-cyclopentyl-N-[(4,6-dimethyl-2-oxo-1,2-dihydropyridin-3-yl)methyl]-6-[4-[(4-{2-[(5-{[5-({[(2S)-1-[(2S,4R)-4-hydroxy-2-({[4-(4-methyl-1,3-thiazol-5-yl)phenyl]methyl}carbamoyl)pyrrolidin-1-yl]-3,3-dimethyl-1-oxobutan-2-yl]carbamoyl}methoxy)pentyl]oxy}pentyl)oxy]ethyl}piperazin-1-yl)methyl]phenyl}-1H-indole-4-carboxamide] | B (B = degradation between 30% and 60%)
9 | Cc1cc(C)c(CNC(=O)c2c(C)n(C(C)C3CCN(C(=O)COCCOCCOCCNc4cccc5c4C(=O)N(C4CCC(=O)NC4=O)C5=O)CC3)c3ccccc23)c(=O)[nH]1 (stereo not drawn) [Compound 7, N-[(4,6-dimethyl-2-oxo-1,2-dihydropyridin-3-yl)methyl]-1-[1-(1-{1-[2-(2,6-dioxopiperidin-3-yl)-1,3-dioxo-2,3-dihydro-1H-isoindol-4-yl]-4,7,10-trioxa-1-azadodecanoyl}piperidin-4-yl)ethyl]-2-methyl-1H-indole-3-carboxamide] | B (B = degradation between 30% and 60%)
